Experiment [1] concerns the target LYN B (Homo sapiens, UniProt P07948). As to conditions: substrate Tyr 02, ATP bin 25 μM (ATP Km app 25 μM), read-out: IC50 of known inhibitor (inhibitor validation); cited from earlier work.
Experiment [2] concerns the target CSF1R (FMS) (Homo sapiens, UniProt P07333). As to conditions: substrate Tyr 01, ATP bin 500 μM (ATP Km app 450 μM), read-out: IC50 of known inhibitor (inhibitor validation); cited from earlier work.
Experiment [3] concerns the target ABL1 (Homo sapiens, UniProt P00519). As to conditions: Z'-Lyte substrate Tyr 02, ATP bin 10 μM (ATP Km app 12 μM), read-out: IC50 of known inhibitor (inhibitor validation); cited from earlier work.
Experiment [4] deals with Aβ total. Kind of experiment: Aβ total levels in H4 neuroglioma cells stably expressing human APP695 (MSD electrochemiluminescence). Type of experiment: cell-based. Particulars: selectivity ratio vs. Aβtotal, Table 4a. As for the experimental part:
(§1) Cells were plated out to near confluency. The compounds to be tested were received as 10 mM stocks in 100% DMSO. A dilution series was initially generated in 100% DMSO and then diluted 200-fold in cell culture media such that the tested concentration range was 30 μM to 0.1 nM and the final DMSO concentration was 0.5%. The diluted compounds were incubated with the cells for 22 hours in an incubator at 37° C. and 5% CO2. Aβ42 levels were measured post-incubation from the supernatant of the cells using an Aβ42 specific electrochemiluminescence assay provided by Meso Scale Discovery (Catalog #L21CA-1). The measurement of Aβ42 levels were performed according to the manufacturer's protocol.
Aβ total levels were likewise determined using a specific electrochemiluminescence assay provided by Meso Scale Discovery (Catalog #L21ZA-1) according to the manufacturer's protocol.

The test system of experiment [5] is Aβ42 production. Briefly: Inhibition of Aβ42 production in H4 neuroglioma cells stably expressing human APP695 (MSD electrochemiluminescence). Type of experiment: cell-based. Particulars: H4 neuroglioma cells expressing human APP695, 22 hours incubation; Table 4a. As for the experimental part: as §1

Results on 13 molecules are retold here after US11339161B2, “Triazolo pyridines as modulators of gamma-secretase” (Boehringer Ingelheim International GmbH, priority 2017, dated 2022).

Chain of ABL1 (P00519 whole entry): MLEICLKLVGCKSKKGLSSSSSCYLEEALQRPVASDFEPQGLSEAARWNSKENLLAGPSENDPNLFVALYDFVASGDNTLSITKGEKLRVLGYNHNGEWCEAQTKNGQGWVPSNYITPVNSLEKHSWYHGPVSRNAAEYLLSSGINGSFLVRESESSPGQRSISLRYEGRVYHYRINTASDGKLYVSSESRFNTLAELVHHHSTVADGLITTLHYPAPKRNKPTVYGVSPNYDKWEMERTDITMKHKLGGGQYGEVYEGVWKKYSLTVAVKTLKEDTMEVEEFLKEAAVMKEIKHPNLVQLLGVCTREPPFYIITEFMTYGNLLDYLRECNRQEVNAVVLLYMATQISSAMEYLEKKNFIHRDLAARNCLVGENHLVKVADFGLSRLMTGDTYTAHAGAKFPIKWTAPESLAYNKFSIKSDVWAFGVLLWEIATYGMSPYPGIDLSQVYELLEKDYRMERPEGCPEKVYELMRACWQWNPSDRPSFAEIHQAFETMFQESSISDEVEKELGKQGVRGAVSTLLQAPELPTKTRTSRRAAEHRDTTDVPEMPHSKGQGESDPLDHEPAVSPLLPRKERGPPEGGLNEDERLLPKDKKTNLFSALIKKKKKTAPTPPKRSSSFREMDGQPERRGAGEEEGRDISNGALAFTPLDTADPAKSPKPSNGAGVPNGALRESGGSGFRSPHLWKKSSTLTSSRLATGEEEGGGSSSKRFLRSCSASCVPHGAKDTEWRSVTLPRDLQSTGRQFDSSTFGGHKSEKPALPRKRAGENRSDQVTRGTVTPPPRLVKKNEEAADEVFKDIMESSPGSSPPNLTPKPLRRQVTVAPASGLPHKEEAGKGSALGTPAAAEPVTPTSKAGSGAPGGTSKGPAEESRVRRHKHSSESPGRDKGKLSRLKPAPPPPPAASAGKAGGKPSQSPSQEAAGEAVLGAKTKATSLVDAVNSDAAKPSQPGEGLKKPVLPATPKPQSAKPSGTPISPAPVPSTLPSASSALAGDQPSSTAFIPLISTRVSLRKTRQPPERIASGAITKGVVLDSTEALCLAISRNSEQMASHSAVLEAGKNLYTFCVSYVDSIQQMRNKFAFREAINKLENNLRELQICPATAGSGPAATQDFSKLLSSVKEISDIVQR
Chain of CSF1R (FMS) (P07333 20-972): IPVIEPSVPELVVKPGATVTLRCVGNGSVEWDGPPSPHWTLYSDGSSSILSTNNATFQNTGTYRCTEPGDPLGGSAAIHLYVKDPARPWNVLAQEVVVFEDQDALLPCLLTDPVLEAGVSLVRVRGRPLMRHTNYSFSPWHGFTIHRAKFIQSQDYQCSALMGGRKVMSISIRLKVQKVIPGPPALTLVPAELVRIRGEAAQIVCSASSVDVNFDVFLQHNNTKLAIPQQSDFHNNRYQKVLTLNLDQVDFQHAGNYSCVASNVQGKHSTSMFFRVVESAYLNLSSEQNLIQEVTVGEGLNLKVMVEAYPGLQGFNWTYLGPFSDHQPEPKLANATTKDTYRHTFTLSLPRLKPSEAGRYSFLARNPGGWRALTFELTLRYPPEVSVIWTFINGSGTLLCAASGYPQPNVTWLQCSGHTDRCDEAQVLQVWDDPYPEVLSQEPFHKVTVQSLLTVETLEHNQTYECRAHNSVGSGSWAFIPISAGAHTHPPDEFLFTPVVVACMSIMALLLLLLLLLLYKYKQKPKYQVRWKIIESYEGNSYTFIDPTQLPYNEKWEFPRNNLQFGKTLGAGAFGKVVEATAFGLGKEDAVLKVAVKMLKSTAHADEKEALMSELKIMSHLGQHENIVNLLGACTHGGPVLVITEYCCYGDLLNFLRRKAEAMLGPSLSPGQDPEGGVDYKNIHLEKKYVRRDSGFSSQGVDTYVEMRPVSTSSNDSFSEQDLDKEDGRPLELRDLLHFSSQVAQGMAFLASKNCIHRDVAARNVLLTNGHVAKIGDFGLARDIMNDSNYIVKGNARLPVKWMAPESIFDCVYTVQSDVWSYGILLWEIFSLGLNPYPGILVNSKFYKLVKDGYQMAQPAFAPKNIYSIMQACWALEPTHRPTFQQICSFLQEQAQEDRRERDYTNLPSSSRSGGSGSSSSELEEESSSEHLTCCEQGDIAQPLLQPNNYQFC
Chain of LYN B (P07948 1-491 isoform P07948-2): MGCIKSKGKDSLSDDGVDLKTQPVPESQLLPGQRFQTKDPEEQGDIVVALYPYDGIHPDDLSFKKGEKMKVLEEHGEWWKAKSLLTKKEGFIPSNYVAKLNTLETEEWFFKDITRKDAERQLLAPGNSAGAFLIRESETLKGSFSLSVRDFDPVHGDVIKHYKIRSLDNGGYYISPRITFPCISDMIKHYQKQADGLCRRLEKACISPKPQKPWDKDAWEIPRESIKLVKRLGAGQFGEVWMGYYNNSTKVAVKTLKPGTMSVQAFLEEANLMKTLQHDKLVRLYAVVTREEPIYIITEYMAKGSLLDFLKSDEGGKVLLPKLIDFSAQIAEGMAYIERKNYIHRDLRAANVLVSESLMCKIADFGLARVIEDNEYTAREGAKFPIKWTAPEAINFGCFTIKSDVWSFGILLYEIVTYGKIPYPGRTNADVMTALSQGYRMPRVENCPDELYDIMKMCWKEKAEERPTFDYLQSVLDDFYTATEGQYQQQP

As usually defined, the IC50 is the concentration that inhibits the measured activity by half. As to `COc1cc2ncnc(Nc3cccc(Cl)c3)c2cc1OC` [Tyrphostin AG1478], the figures for the 50% inhibitory concentration (IC50) in experiment [1], in experiment [2] and in experiment [3] were 242 nM, 4420 nM and 421 nM, respectively.

On to `CCn1ncc2c1CCC(Nc1nc3c(-c4ccc(F)c(Cl)c4)cccn3n1)C2` (stereo not drawn) [Example 61, [8-(3-Chloro-4-fluoro-phenyl)-[1,2,4]triazolo[1,5-a]pyridine-2-yl]-(1-ethyl-4,5,6,7-tetrahydro-1H-indazol-5-yl)-amine], for which, in experiment [4], the “Ratio AβTotal IC50/Aβ42 IC50” value was 152. Further, the IC50 in experiment [5] is 20 nM.

For the molecule `CCn1ncc2c1CCC(Nc1nc3c(-c4ccccc4Cl)cccn3n1)C2` (stereo not drawn) [Example 58, [8-(2-Chloro-phenyl)-[1,2,4]triazolo[1,5-a]pyridine-2-yl]-(1-ethyl-4,5,6,7-tetrahydro-1H-indazol-5-yl)-amine], the “Ratio AβTotal IC50/Aβ42 IC50” value in experiment [4] is recorded as 34. For the same molecule, it took 60 nM to reach half-maximal inhibition in experiment [5] (IC50).

For `CCn1ncc2c1CCC(Nc1nc3c(-c4ccc(N(C)C)nc4)cccn3n1)C2` (stereo not drawn) [Example 72, [8-(6-Dimethylamino-pyridin-3-yl)-[1,2,4]triazolo[1,5-a]pyridine-2-yl]-(1-ethyl-4,5,6,7-tetrahydro-1H-indazol-5-yl)-amine], the “Ratio AβTotal IC50/Aβ42 IC50” value in experiment [4] was 538. The IC50 in experiment [5] is 50 nM.

For the molecule `CCn1ncc2c1CCC(Nc1nc3c(-c4cc(F)c(F)c(F)c4)cccn3n1)C2` (stereo not drawn) [Example 62, (1-Ethyl-4,5,6,7-tetrahydro-1H-indazol-5-yl)-[8-(3,4,5-trifluoro-phenyl)-[1,2,4]triazolo[1,5-a]pyridine-2-yl]-amine], the “Ratio AβTotal IC50/Aβ42 IC50” value in experiment [4] turned out to be 128. For the same molecule, in experiment [5], the IC50 is 30 nM.

Regarding `CCc1nnn2c1CCC(Nc1nc3c(-c4ccc(F)cc4C)cccn3n1)C2` (stereo not drawn) [Example 52, (3-Ethyl-4,5,6,7-tetrahydro-[1,2,3]triazolo[1,5-a]pyridine-6-yl)-[8-(4-fluoro-2-methyl-phenyl)-[1,2,4]triazolo[1,5-a]pyridine-2-yl]-amine], in experiment [4], the “Ratio AβTotal IC50/Aβ42 IC50” value turned out to be 2. Further, inhibition in experiment [5] was half-maximal at 740 nM (IC50).

Turning to `CCn1ncc2c1CCC(Nc1nc3c(-c4cncc(C)c4)cccn3n1)C2` (stereo not drawn) [Example 66, (1-Ethyl-4,5,6,7-tetrahydro-1H-indazol-5-yl)-[8-(5-methyl-pyridin-3-yl)-[1,2,4]triazolo[1,5-a]pyridine-2-yl]-amine], the “Ratio AβTotal IC50/Aβ42 IC50” value in experiment [4] is on record as 154. Half-maximal inhibition in experiment [5] (IC50) was put at 200 nM.

Take `Cc1cc(F)ccc1-c1cccn2nc(NC3CCc4[nH]ncc4C3)nc12` (stereo not drawn) [Example 41, [8-(4-Fluoro-2-methyl-phenyl)-[1,2,4]triazolo[1,5-a]pyridine-2-yl]-(4,5,6,7-tetrahydro-1H-indazol-5-yl)-amine]: the “Ratio AβTotal IC50/Aβ42 IC50” value in experiment [4] was 1. In experiment [5], this molecule came in with an IC50 of 4570 nM.

With `CCOC1Cc2c(cnn2CC)CC1Nc1nc2c(-c3cc(F)c(F)c(F)c3)cccn2n1` (stereo not drawn) [Example 50, (6-Ethoxy-1-ethyl-4,5,6,7-tetrahydro-1H-indazol-5-yl)-[8-(3,4,5-trifluoro-phenyl)-[1,2,4]triazolo[1,5-a]pyridine-2-yl]-amine], in experiment [4], the “Ratio AβTotal IC50/Aβ42 IC50” value was found to be 1. The same molecule returned a 50% inhibitory concentration (IC50) in experiment [5] of 21700 nM.

Take `CCc1nnc2n1CCC(Nc1nc3c(-c4ccc(F)cc4C)cccn3n1)C2` (stereo not drawn) [Example 53, (3-Ethyl-5,6,7,8-tetrahydro-[1,2,4]triazolo[4,3-a]pyridine-7-yl)-[8-(4-fluoro-2-methyl-phenyl)-[1,2,4]triazolo[1,5-a]pyridine-2-yl]-amine]: the “Ratio AβTotal IC50/Aβ42 IC50” value in experiment [4] came out at 1. Moreover, in experiment [5], the IC50 is 1390 nM.

With `CCn1ncc2c1CCC(Nc1nc3c(-c4cccnc4C)cccn3n1)C2` (stereo not drawn) [Example 65, (1-Ethyl-4,5,6,7-tetrahydro-1H-indazol-5-yl)-[8-(2-methyl-pyridin-3-yl)-[1,2,4]triazolo[1,5-a]pyridine-2-yl]-amine], in experiment [4], the “Ratio AβTotal IC50/Aβ42 IC50” value turned out to be 44. The molecule further gave an IC50 in experiment [5] of 680 nM.

As to `CCn1ncc2c1CCC(Nc1nc3c(-c4ccc(Cl)cc4)cccn3n1)C2` (stereo not drawn) [Example 60, [8-(4-Chloro-phenyl)-[1,2,4]triazolo[1,5-a]pyridine-2-yl]-(1-ethyl-4,5,6,7-tetrahydro-1H-indazol-5-yl)-amine], the “Ratio AβTotal IC50/Aβ42 IC50” value in experiment [4] is 113. This molecule also displayed an IC50 in experiment [5] of 60 nM.

For `CCn1ncc2c1CCC(Nc1nc3c(-c4cnccc4C)cccn3n1)C2` (stereo not drawn) [Example 64, (1-Ethyl-4,5,6,7-tetrahydro-1H-indazol-5-yl)-[8-(4-methyl-pyridin-3-yl)-[1,2,4]triazolo[1,5-a]pyridine-2-yl]-amine], in experiment [4], the “Ratio AβTotal IC50/Aβ42 IC50” value was determined as 41. This molecule displayed an IC50 in experiment [5] of 730 nM.
